Results from the supplement of paper PMC10307832.

Tests used:
Experiment in all cases: relative viability (nuclei count vs DMSO), 5 days (fraction); higher = more cells survive
[1] = compound: Cc1ccc(NC(=O)c2ccc(CN3CCN(C)CC3)cc2)cc1Nc1nc(-c2cccnc2)cs1 [Masitinib] + O=C(c1cc(Cc2n[nH]c(=O)c3ccccc23)ccc1F)N1CCN(C(=O)C2CC2)CC1 [Olaparib] (partner 8 µM)
Procedure, shortened: (§1)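 One day after seeding in 1536-well plates, lung cancer cell lines were dosed by pin tool. Dosing was either single-drug or a fixed anchor-drug dose plus five library-drug doses (not always all listed) in √10 steps. After 5 days, nuclei were stained in one fix-and-stain step and counted on 4× images, and relative viability is the nuclei count of treated wells over that of vehicle wells, given as the median of duplicate plates.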

[2] = compound: Cc1ccc(NC(=O)c2ccc(CN3CCN(C)CC3)cc2)cc1Nc1nc(-c2cccnc2)cs1 [Masitinib] + C[C@@H](Oc1cc(-c2cnn(C3CCNCC3)c2)cnc1N)c1c(Cl)ccc(F)c1Cl [Crizotinib] (partner 1 µM)
Procedure, shortened: as §1

[3] = compound: CC1=CC(=CC=C1)NC2=NC(=CS2)C3=CC=NC=C3 + C[C@]1(O)C[C@@H](c2nc(-c3ccc4ccc(-c5ccccc5)nc4c3)c3c(N)nccn32)C1 [Linsitinib] (partner 1 µM)
Procedure, shortened: as §1

[4] = compound: Cc1ccc(NC(=O)c2ccc(CN3CCN(C)CC3)cc2)cc1Nc1nc(-c2cccnc2)cs1 [Masitinib] + Nc1nc2[nH]cc(CCc3ccc(C(=O)N[C@@H](CCC(=O)O)C(=O)O)cc3)c2c(=O)[nH]1 [Pemetrexed] (partner 0.2 µM)
Procedure, shortened: as §1

| Cell Line | relative viability ([1]; first compound 0.01 µM) | relative viability ([1]; first compound 0.03162 µM) | relative viability ([1]; first compound 0.1 µM) | relative viability ([1]; first compound 0.3162 µM) | relative viability ([1]; first compound 1 µM) | relative viability ([2]; first compound 0.01 µM) | relative viability ([2]; first compound 0.03162 µM) | relative viability ([2]; first compound 0.1 µM) | relative viability ([2]; first compound 0.3162 µM) | relative viability ([2]; first compound 1 µM) | relative viability ([3]; first compound 0.08 µM) | relative viability ([3]; first compound 0.253 µM) | relative viability ([3]; first compound 0.8 µM) | relative viability ([3]; first compound 2.53 µM) | relative viability ([3]; first compound 8 µM) | relative viability ([4]; first compound 0.01 µM) | relative viability ([4]; first compound 0.03162 µM) | relative viability ([4]; first compound 0.1 µM) | relative viability ([4]; first compound 0.3162 µM) | relative viability ([4]; first compound 1 µM) |
| --- | --- | --- | --- | --- | --- | --- | --- | --- | --- | --- | --- | --- | --- | --- | --- | --- | --- | --- | --- | --- |
| COR-L23 | 0.35 | 0.329 | 0.361 | 0.309 | 0.27 | 0.645 | 0.607 | 0.768 | 0.59 | 0.629 | 0.821 | 0.89 | 0.62 | 0.892 | 0.843 | 0.214 | 0.227 | 0.194 | 0.205 | 0.196 |
| NCI-H2126 | 0.916 | 0.965 | 1 | 0.992 | 0.991 | 1.02 | 1.09 | 1.05 | 1.07 | 0.993 | 0.671 | 0.694 | 0.71 | 0.726 | 0.657 | 0.633 | 0.713 | 0.672 | 0.665 | 0.738 |
| LC-2-ad | 0.708 | 0.715 | 0.719 | 0.702 | 0.73 | 0.347 | 0.399 | 0.466 | 0.473 | 0.373 | 0.764 | 0.821 | 0.684 | 0.788 | 0.739 | 0.265 | 0.29 | 0.268 | 0.248 | 0.247 |
| NCI-H1975 | 0.79 | 0.727 | 0.78 | 0.642 | 0.839 | 0.948 | 0.88 | 1.06 | 0.872 | 0.926 | 0.825 | 0.868 | 0.702 | 0.754 | 0.738 | 0.305 | 0.3 | 0.287 | 0.291 | 0.303 |
| NCI-H1944 | – | 0.344 | – | 0.364 | 0.374 | – | 1.15 | 0.59 | 0.988 | 1.1 | 1.17 | 1.15 | 1.26 | 1.19 | 1.12 | – | 0.618 | – | 0.572 | 0.566 |
| NCI-H2085 | 0.729 | 0.805 | 0.798 | 0.815 | 0.728 | 0.784 | 0.775 | 0.868 | 0.985 | 0.853 | 0.901 | 0.952 | 0.911 | 0.838 | 0.578 | 0.976 | 0.936 | 1.01 | 0.992 | 0.844 |
| COR-L 105 | 0.655 | 0.532 | 0.689 | 0.494 | 0.498 | 0.657 | 0.803 | 0.876 | 0.686 | 0.717 | 0.822 | 0.738 | 0.803 | 0.808 | 0.653 | 1.04 | 1.09 | 1.1 | 0.989 | 0.997 |
| SK-LU-1 | 0.419 | 0.486 | 0.436 | 0.524 | 0.497 | 0.832 | 0.884 | 0.983 | 1.01 | 0.756 | 1.03 | 1.1 | 0.815 | 1.17 | 1 | 0.982 | 1 | 1.06 | 0.919 | 1.03 |
